Experiments:
[1] = system: human derived keratinocytes; test: ROS detection in H2O2-treated human derived keratinocytes (Example 3: alpha-tocopherol, EGT, niacinamide); format: cell-based; conditions: alpha-tocopherol 0.001% as printed, EGT 0.01%, niacinamide 0.01%; for % Decrease in ROS generated in keratinocyte by antioxidant treatment: 0.3 wt.% H2O2; for Fold Change, decrease in ROS generated in keratinocyte by antioxidant treatment (relative to untreated): vs F (0.1% DMSO + 0.3% H2O2)
Procedure: Hydrogen peroxide treated cells were then treated with: alpha-tocopherol, ergothioneine and niacinamide, respectively and in combination.
Cellular ROS/Superoxide Detection Assay Kit (Abcam—ab139476)

[2] = system: human derived keratinocytes; test: ROS detection in H2O2-treated human derived keratinocytes (Example 2: alpha-tocopherol, EGT, sodium PCA); conditions: vs F (0.1 wt.% DMSO + 0.3 wt.% H2O2); alpha-tocopherol 0.001%, EGT 0.01%, Na PCA 0.01%; 30 min treatment
Procedure: Keratinocytes were treated with exogenous 0.3 wt. % hydrogen peroxide to induce reactive oxygen species (ROS) production. […] Changes in ROS production were assessed using a ROS Detection Assay Kit and fluorescence microplate reader.
Cell Culture Treatment • 500 uL of each treatment sample was directly applied to the 24-well plates and incubated for 30 mins. • Post incubation: each well was washed with the wash buffer (1×) provided. • 250 uL of green Fluorescent (GF) dye containing media (2.5 uL of GF dye/250 uL of media) was then added to each well and incubate for 60 mins. • Post incubation, Fluorescence was read on a microplate reader at 490/525.

Compound | % Decrease in ROS generated in keratinocyte by antioxidant treatment [1] | Fold Change, decrease in ROS generated in keratinocyte by antioxidant treatment (relative to untreated) [1] | Fold Change, decrease in ROS generated in keratinocyte by antioxidant treatment (relative to untreated) [2]
Cc1c(C)c2c(c(C)c1O)CC[C@@](C)(CCC[C@H](C)CCC[C@H](C)CCCC(C)C)O2 [Alpha-tocopherol, alpha-tocopherol] | 20.79% | 0.4-fold fold decrease | 4.21-fold decrease
O=C1CCC(C(=O)[O-])N1.[Na+] (stereo not drawn) [Na PCA, sodium pyrrolidone carboxylic acid] | 25.75% |  | 2.25-fold decrease
NC(=O)c1cccnc1 [Niacinamide, niacinamide] |  | 0.24-fold fold decrease | 
C[N+](C)(C)[C@@H](Cc1c[nH]c(=S)[nH]1)C(=O)[O-] [EGT, Ergothioneine] | 15.91% | 0.31-fold fold decrease | 4.43-fold decrease

Reference: patent US11938212B2, “Skin care compositions” (Colgate-Palmolive Company, priority 2022, dated 2024)
